How the values were obtained:
[1] = molecular target: cAMP and cAMP-inhibited cGMP 3',5'-cyclic phosphodiesterase 10A (Homo sapiens, UniProt Q9Y233); assay: Inhibition of human recombinant PDE10A using [3H]-cAMP/[3H]-cGMP as substrate after 30 mins by radiometric assay
[2] = Drug uptake in Sprague-Dawley rat brain at 10 mg/kg, po after 30 mins; assay type: ADME, organism-based; set-up: dose 10 mg/kg, route oral; details: read-out: Drug uptake
[3] = Ratio of drug level in brain to plasma in Sprague-Dawley rat at 10 mg/kg, po after 30 mins; assay type: ADME, organism-based; set-up: dose 10 mg/kg, route oral; details: brain and plasma, read-out: BPR
[4] = Plasma concentration in Sprague-Dawley rat at 10 mg/kg, po after 30 mins; assay type: ADME, organism-based; set-up: dose 10 mg/kg, route oral
[5] = Metabolic stability in rat liver microsomes assessed as compound remaining after 60 mins; assay type: ADME; details: read-out: Stability
[6] = Metabolic stability in human liver microsomes assessed as compound remaining after 60 mins; assay type: ADME; details: read-out: Stability
Rattus norvegicus = assay: Antipsychotic activity in Sprague-Dawley rat psychosis model assessed as inhibition of MK-801-induced hyperlocomotion at 1 mg/kg, ip administered 5 mins prior to MK-801-challenge measured after 15 mins up to 1 hr; assay type: functional; details: route intraperitoneal
[7] = molecular target: High affinity cAMP-specific and IBMX-insensitive 3',5'-cyclic phosphodiesterase 8A (Homo sapiens) (UniProt O60658); assay: Inhibition of PDE8A (unknown origin) using [3H]-cAMP as substrate at 10 uM after 30 mins by radiometric assay
Sequence of High affinity cAMP-specific and IBMX-insensitive 3',5'-cyclic phosphodiesterase 8A (Homo sapiens) (O60658 whole entry): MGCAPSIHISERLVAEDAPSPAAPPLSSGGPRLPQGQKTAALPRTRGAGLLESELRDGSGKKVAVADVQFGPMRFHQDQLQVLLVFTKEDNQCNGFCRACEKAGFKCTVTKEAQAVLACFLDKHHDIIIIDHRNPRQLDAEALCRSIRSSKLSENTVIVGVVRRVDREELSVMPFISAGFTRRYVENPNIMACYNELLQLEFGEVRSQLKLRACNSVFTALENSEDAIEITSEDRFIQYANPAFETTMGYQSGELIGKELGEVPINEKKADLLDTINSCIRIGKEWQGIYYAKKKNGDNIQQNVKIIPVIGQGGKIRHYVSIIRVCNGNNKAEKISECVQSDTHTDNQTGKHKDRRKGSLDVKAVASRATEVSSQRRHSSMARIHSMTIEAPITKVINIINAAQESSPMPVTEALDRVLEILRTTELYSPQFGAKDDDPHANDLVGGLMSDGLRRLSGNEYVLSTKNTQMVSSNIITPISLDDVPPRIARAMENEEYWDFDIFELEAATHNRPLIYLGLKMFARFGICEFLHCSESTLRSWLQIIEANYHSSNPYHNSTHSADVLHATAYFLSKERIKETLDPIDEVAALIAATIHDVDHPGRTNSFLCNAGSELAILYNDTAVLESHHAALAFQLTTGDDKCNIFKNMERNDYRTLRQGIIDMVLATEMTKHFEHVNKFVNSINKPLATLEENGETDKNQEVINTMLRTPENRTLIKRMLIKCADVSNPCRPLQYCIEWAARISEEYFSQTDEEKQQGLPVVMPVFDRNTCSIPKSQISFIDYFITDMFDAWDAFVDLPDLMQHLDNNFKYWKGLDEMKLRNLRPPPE

[8] = molecular target: Dual 3',5'-cyclic-AMP and -GMP phosphodiesterase 11A (Homo sapiens) (UniProt Q9HCR9); assay: Inhibition of PDE11A (unknown origin) using [3H]-cAMP as substrate at 10 uM after 30 mins by radiometric assay
Sequence of Dual 3',5'-cyclic-AMP and -GMP phosphodiesterase 11A (Homo sapiens) (Q9HCR9 whole entry, looked up): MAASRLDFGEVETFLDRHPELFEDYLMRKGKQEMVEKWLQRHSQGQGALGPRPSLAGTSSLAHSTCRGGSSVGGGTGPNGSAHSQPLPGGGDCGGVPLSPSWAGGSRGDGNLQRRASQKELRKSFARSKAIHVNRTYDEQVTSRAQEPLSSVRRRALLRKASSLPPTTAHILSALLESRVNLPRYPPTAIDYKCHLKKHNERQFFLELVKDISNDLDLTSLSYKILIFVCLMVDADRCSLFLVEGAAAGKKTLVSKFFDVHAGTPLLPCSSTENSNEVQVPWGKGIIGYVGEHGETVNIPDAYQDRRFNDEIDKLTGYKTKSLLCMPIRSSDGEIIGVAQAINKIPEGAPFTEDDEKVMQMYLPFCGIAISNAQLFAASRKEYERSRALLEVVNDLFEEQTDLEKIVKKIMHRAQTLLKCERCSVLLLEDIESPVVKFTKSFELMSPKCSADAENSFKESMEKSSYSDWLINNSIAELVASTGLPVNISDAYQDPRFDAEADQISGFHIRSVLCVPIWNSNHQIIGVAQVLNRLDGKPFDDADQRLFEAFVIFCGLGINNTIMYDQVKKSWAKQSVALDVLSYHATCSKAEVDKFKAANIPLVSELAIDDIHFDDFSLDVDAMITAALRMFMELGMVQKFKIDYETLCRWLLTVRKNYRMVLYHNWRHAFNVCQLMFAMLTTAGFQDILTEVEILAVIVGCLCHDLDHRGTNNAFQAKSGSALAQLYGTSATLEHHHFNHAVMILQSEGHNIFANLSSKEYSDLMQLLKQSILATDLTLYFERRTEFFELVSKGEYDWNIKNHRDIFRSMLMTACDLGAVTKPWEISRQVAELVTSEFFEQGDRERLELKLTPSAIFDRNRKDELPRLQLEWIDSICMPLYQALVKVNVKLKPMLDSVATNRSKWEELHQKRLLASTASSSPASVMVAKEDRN

[9] = molecular target: cGMP-specific 3',5'-cyclic phosphodiesterase (Homo sapiens) (UniProt O76074); assay: Inhibition of PDE5A (unknown origin) using [3H]-cGMP as substrate at 10 uM after 30 mins by radiometric assay
Homo sapiens [10] = species on record: Homo sapiens; assay: Selectivity ratio of IC50 for PDE4D (unknown origin) to IC50 for human recombinant PDE10A
Homo sapiens [11] = species on record: Homo sapiens; assay: Selectivity ratio of IC50 for PDE2A (unknown origin) to IC50 for human recombinant PDE10A
[12] = molecular target: 3',5'-cyclic-AMP phosphodiesterase 4D (Homo sapiens) (UniProt Q08499); assay: Inhibition of PDE4D (unknown origin) using cAMP as substrate at 10 uM after 30 mins
Sequence of 3',5'-cyclic-AMP phosphodiesterase 4D (Homo sapiens) (Q08499 whole entry): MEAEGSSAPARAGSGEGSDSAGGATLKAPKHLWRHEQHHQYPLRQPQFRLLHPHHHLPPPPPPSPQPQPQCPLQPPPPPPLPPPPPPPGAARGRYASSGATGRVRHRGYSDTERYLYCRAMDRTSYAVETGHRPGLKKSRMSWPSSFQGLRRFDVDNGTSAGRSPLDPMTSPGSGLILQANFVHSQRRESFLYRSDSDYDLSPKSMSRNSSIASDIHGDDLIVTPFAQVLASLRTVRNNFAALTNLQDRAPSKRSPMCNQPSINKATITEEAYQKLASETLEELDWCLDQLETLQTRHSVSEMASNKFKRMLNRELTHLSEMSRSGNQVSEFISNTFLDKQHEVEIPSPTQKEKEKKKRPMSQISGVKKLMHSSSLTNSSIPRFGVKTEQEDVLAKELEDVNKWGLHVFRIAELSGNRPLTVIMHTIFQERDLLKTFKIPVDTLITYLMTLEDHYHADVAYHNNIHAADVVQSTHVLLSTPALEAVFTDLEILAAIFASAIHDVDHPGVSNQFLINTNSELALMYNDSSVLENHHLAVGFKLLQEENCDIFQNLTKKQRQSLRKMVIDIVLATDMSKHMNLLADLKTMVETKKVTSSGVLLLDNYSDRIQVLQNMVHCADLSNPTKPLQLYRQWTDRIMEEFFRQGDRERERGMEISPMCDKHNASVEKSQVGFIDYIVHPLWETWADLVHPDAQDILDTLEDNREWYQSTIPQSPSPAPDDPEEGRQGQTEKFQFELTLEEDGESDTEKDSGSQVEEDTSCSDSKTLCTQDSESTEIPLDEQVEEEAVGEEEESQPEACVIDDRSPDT

Homo sapiens [13] = species on record: Homo sapiens; assay: Selectivity ratio of IC50 for PDE8A (unknown origin) to IC50 for human recombinant PDE10A
Homo sapiens [14] = species on record: Homo sapiens; assay: Selectivity ratio of IC50 for PDE1A (unknown origin) to IC50 for human recombinant PDE10A
[15] = molecular target: High affinity 3',5'-cyclic-AMP phosphodiesterase 7A (Homo sapiens) (UniProt Q13946); assay: Inhibition of PDE7A1 (unknown origin) using [3H]-cAMP as substrate at 10 uM after 30 mins by radiometric assay
Sequence of High affinity 3',5'-cyclic-AMP phosphodiesterase 7A (Homo sapiens) (Q13946 whole entry): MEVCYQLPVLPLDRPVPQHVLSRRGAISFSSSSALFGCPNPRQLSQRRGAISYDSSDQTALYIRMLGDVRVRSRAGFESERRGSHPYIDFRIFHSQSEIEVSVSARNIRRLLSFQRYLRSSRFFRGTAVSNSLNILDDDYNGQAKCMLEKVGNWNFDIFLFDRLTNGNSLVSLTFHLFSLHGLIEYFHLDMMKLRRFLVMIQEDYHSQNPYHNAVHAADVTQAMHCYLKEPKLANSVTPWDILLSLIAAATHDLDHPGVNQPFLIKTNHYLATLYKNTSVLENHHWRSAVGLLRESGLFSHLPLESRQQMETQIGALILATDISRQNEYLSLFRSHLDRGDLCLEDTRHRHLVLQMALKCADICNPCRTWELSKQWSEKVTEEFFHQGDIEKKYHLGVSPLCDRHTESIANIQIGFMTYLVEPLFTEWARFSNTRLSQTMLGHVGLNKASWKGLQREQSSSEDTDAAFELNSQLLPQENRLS

Homo sapiens [16] = species on record: Homo sapiens; assay: Selectivity ratio of IC50 for PDE3A (unknown origin) to IC50 for human recombinant PDE10A
Homo sapiens [17] = species on record: Homo sapiens; assay: Selectivity ratio of IC50 for PDE9A2 (unknown origin) to IC50 for human recombinant PDE10A
[18] = molecular target: cGMP-inhibited 3',5'-cyclic phosphodiesterase 3A (Homo sapiens) (UniProt Q14432); assay: Inhibition of PDE3A (unknown origin) using cAMP as substrate at 10 uM after 30 mins by HTRF method
[19] = molecular target: High affinity cGMP-specific 3',5'-cyclic phosphodiesterase 9A (Homo sapiens) (UniProt O76083); assay: Inhibition of PDE9A2 (unknown origin) using [3H]-cGMP as substrate at 10 uM after 30 mins by radiometric assay
[20] = molecular target: cGMP-dependent 3',5'-cyclic phosphodiesterase (Homo sapiens) (UniProt O00408); assay: Inhibition of PDE2A (unknown origin) using cAMP as substrate at 10 uM after 30 mins by HTRF method
Sequence of cGMP-dependent 3',5'-cyclic phosphodiesterase (Homo sapiens) (O00408 whole entry): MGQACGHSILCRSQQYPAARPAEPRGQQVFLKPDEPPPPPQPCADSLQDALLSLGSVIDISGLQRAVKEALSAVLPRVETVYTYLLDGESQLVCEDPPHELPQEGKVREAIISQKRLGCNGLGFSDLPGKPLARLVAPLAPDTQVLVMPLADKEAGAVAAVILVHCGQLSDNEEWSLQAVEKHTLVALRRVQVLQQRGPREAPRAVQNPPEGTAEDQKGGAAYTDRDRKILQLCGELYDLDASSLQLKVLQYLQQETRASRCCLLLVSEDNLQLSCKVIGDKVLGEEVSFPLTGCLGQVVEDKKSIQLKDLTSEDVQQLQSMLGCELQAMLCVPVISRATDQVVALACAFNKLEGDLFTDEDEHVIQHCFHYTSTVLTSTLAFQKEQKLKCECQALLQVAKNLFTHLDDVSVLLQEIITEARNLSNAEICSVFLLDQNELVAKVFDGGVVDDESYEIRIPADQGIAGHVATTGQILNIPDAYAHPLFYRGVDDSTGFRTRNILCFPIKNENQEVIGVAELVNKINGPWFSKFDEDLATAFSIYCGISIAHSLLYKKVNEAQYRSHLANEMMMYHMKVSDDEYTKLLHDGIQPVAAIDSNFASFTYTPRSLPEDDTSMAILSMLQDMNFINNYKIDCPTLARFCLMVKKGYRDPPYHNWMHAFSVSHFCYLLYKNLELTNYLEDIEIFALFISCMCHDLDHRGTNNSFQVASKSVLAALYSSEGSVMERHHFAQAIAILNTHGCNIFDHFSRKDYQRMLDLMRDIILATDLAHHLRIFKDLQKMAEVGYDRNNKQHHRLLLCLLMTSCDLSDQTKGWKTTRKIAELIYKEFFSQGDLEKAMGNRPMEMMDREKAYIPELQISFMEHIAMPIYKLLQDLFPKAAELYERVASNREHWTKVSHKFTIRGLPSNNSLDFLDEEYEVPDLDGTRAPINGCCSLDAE

Homo sapiens [21] = species on record: Homo sapiens; assay: Selectivity ratio of IC50 for PDE5A (unknown origin) to IC50 for human recombinant PDE10A
Homo sapiens [22] = species on record: Homo sapiens; assay: Selectivity ratio of IC50 for PDE11A (unknown origin) to IC50 for human recombinant PDE10A
Homo sapiens [23] = species on record: Homo sapiens; assay: Selectivity ratio of IC50 for PDE7A1 (unknown origin) to IC50 for human recombinant PDE10A

Sequence of cAMP and cAMP-inhibited cGMP 3',5'-cyclic phosphodiesterase 10A (Q9Y233 whole entry): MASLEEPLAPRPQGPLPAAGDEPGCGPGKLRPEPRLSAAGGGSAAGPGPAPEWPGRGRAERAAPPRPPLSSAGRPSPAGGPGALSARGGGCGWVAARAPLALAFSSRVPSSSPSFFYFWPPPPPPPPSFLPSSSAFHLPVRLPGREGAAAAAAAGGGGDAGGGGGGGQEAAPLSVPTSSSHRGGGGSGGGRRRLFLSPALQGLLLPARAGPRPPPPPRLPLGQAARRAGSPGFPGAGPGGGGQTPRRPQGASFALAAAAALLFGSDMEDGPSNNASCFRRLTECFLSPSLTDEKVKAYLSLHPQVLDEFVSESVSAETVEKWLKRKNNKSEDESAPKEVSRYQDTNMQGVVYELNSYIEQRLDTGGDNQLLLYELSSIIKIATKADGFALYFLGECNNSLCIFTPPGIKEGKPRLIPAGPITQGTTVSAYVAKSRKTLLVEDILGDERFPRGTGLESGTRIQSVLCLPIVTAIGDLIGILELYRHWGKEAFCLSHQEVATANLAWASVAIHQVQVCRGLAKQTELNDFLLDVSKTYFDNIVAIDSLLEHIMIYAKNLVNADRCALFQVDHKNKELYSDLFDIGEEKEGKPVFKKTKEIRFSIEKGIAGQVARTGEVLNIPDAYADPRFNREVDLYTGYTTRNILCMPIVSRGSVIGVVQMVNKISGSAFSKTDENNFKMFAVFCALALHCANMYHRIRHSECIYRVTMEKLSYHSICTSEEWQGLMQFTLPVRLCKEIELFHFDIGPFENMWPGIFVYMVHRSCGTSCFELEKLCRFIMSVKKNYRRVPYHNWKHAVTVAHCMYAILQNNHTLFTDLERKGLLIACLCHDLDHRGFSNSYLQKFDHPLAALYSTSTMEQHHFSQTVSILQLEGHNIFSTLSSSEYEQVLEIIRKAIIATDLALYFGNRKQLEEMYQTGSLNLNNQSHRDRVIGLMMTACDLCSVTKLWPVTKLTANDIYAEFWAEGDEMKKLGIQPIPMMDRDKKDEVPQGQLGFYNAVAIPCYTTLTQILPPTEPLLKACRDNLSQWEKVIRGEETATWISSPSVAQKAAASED

IC50 [1]	concentration at 0.5 h [2]	Kp at 0.5 h [3]	concentration at 0.5 h [4]	remaining at 1 h [5]	remaining at 1 h [6]	Compound	other results
351 nM						Cc1nc2sc3cc(OCc4ccc5ccccc5n4)ccc3n2c1-c1ccncc1	
5.12 nM	732 ng/g	1.86	394 ng/mL	70%	44%	Cc1nc([C@]23COC[C@H]2C3)n2c1sc1cc(OCc3ccc4ccccc4n3)ccc12	
6.73 nM	62 ng/g	0.45	137 ng/mL	42%	50%	CC(=O)N1CC(c2nc(C)c3sc4cc(OCc5ccc6ccccc6n5)ccc4n23)C1	
18.5 nM				37%	45%	Cc1nc(C2CCOC2)n2c1sc1cc(OCc3ccc4ccccc4n3)ccc12 (configuration not stated)	
8.96 nM	165 ng/g	0.42	396 ng/mL	48%	76%	CC(=O)N1CCC(c2nc(C)c3sc4cc(OCc5ccc6ccccc6n5)ccc4n23)CC1	
0.9 nM				20%	3%	Cc1nc(C)c(-c2nc(C)c3sc4cc(OCc5ccc6ccccc6n5)ccc4n23)s1	
						Cc1nc2n(c(=O)c1CCN1CCC(c3noc4cc(F)ccc34)CC1)CCCC2 [RISPERIDONE]	inhibition in vivo at 1 mg/kg (Rattus norvegicus): 72%
6.88 nM	430 ng/g	2.62	164 ng/mL	60%	37%	Cc1nc([C@@]23COC[C@@H]2C3)n2c1sc1cc(OCc3ccc4ccccc4n3)ccc12	
13.9 nM				3%	30%	Cc1nc(-c2ccnnc2)n2c1sc1cc(OCc3ccc4ccccc4n3)ccc12	
666 nM						c1ccc2nc(COc3ccc4c(c3)sc3nnc(-c5ccncc5)n34)ccc2c1	
4.85 nM				22%	5%	Cc1nc(-c2ccncc2)n2c1sc1cc(OCc3ccc4ccccc4n3)ccc12	inhibition [7]: 0%; inhibition [8]: 21.4%; inhibition [9]: 34%; Ratio IC50 (Homo sapiens [10]): > 500; Ratio IC50 (Homo sapiens [11]): > 500; inhibition [12]: 27.1%; Ratio IC50 (Homo sapiens [13]): > 500; Ratio IC50 (Homo sapiens [14]): > 500; inhibition [15]: 42.3%; Ratio IC50 (Homo sapiens [16]): > 500; Ratio IC50 (Homo sapiens [17]): > 500; inhibition [18]: 26%; inhibition [19]: 22.8%; inhibition [20]: 67.2%; Ratio IC50 (Homo sapiens [21]): > 500; Ratio IC50 (Homo sapiens [22]): > 500; Ratio IC50 (Homo sapiens [23]): > 500
8.73 nM				19%	5%	Cc1cc(-c2nc(C)c3sc4cc(OCc5ccc6ccccc6n5)ccc4n23)ccn1	
157 nM				80%	100%	Cc1nc(C2CNC2)n2c1sc1cc(OCc3ccc4ccccc4n3)ccc12	
